Experimental data published in a melting point compilation (Tetko et al.; mined from patent text by program, amines drawn as free bases though some values may be those of a salt).

Structure (SMILES)	melting point [°C]
COc1cc2c(cc1OC)CCCC(C(=O)N1CCN(Cc3cc(OC)c(OC)c(OC)c3)CC1CCCO)=C2 (centres undefined)	144 to 145
CCCCCCCCCCCCSCCO	31 to 32
CC(C)(C)OC(=O)N1CCC(CCN2C(=O)C3(COc4cc5c(cc43)OCO5)c3ccccc32)CC1 (centres undefined)	173 to 175
CC(C)(C)C1C(=O)NN=C2CCCCC21 (centres undefined)	161 to 164
CCNc1nc(CC)c(C(=O)c2ccc(N)c([N+](=O)[O-])c2)s1	210 to 212
CNC1=NS(=O)(=O)N=C1NCCCCc1ccc(CN(C)C)o1	152 to 153
NNc1nc(Cl)nc2c(Cl)cc(Cl)cc12	> 280
O=C1CCC(c2c[nH]c3cc(F)ccc23)CC1	102 to 105
CCCCc1nc2c(c(=O)[nH]1)CN(C(C)=O)CC2	106 to 113
CCCOc1ccc(S(=O)(=O)N2CCC(C(=O)OCC)CC2)cc1-c1nc2cc3nc[nH]c3cc2c(=O)[nH]1	145 to 147
CC(C)(C)C(=O)OCOC(=O)[C@H]1[C@@H]2CC[C@@](N)(C(=O)O)[C@@H]21	205 to 206
CCCN1CCCN(c2c(N3CCCN(CCC)CC3)c(=O)c2=O)CC1	90 to 92
Cc1cccc(NC(=O)NCC(=O)N(CC(=O)OC(C)(C)C)c2cccc(OC(F)(F)F)c2)c1	125
CC(C)(C)[Si](C)(C)OC1C(=O)N(S(=O)(=O)c2ccc(N3CCCCCC3)cc2)CC1O (centres undefined)	121
CC(C)N(Sc1ccc([N+](=O)[O-])cc1C(Cl)(Cl)Cl)C(C)C	104
Cc1cc2[nH]c(=O)ccc2c(Br)n1	276 to 278
O=C(O)c1cncn1C(C1CCCCC1)C1CCCCC1	253
CC1CC(C)CN(C(=O)C2Cc3ccccc3N2)C1 (centres undefined)	131 to 133
CCCc1ccc2nc(C(F)(F)F)c(S(=O)(=O)N=CN(C)C)n2n1	219 to 220
Cc1oc2nc(C(=O)O)nc(OCCN(C)C)c2c1C	179 to 180
c1ccc2[nH]c(C34CC5CC(CC(C5)C3)C4)cc2c1	48
CCC1(c2cccc(OC)c2)CCCCN(C)C1=O (centres undefined)	62 to 64
Cc1nc2ccc3c(c2nc1C)OC(CN1CC=C(c2c[nH]c4ccccc24)CC1)CO3 (centres undefined)	153 to 155
CCCCCCCCCCCCCCCCNC(=O)c1cccnc1	85 to 87
CCOC(=O)c1oc(SC)c2c1CCC(Br)C2=O (centres undefined)	130 to 131
CC(C)OC(=O)c1nsc2ccc(-n3c(=O)cc(C(F)(F)F)n(C)c3=O)cc12	94 to 97
OC(c1ccc2c(c1)CCCN2)(C(F)(F)F)C(F)(F)F	115 to 116

Structure (SMILES)	melting point [°C]
CNC(=O)CN1CCc2cc(Nc3ncc(Cl)c(N[C@H]4[C@@H](C(N)=O)[C@@H]5C=C[C@H]4C5)n3)c(OC)cc2CC1	135 to 145
CC(C)(C)ONC(=O)C(C)(C)CCOc1ccc(C2=NNC(=O)CC2)cc1Cl	133 to 135
O=C(NCCCl)Nc1ccc2cn[nH]c2c1	253 to 258
C#CCn1c(=O)[nH]c(=O)n(-c2cc(N3C(=O)C4=C(CCCC4)C3=O)c(F)cc2Cl)c1=O	127 to 135
CCS(=O)(=O)c1nsc(NC(=O)N(C)C)c1C#N	188 to 189
COc1ccc(S(=O)(=O)N(CCC(N)=O)c2ccc(Cl)cc2Cc2c(F)cccc2F)cc1OC	189
Cc1cccc(N2CC(=O)N(C)C(=O)N2)c1	173 to 175
COc1cc(OC)c(C=O)cc1I	170 to 172
Cc1noc(C)c1S(=O)(=O)n1c(CCCC(=O)O)cc2cc(Cl)ccc21	150 to 154
CCN(CC)C(=O)c1ccc(C)c(-c2nc(SC)nc3c2CNC(=O)N3c2c(F)cccc2F)c1	127 to 129
COCC(=O)N(c1c(C)cccc1N)C(C)C(=O)OC (centres undefined)	86 to 88
O=C(c1cc2cc([N+](=O)[O-])ccc2o1)C12CC3CC(CC(C3)C1)C2	151 to 153
COc1cc2c(cc1OC)-c1c(OC)c(OC)cc3c1C(C2)N(C)CC3O (single isomer, unassigned; (+))	180 to 182
COc1ccc(C2=NN(CCO)C(=O)[C@H]3CCCC[C@@H]23)cc1OC (relative stereo)	128 to 129
CN(Cc1ccc(NC(=O)C2=Cc3cc(-c4ccc(OCC(N)=O)cc4)ccc3S(=O)(=O)CC2)cc1)C1CCOCC1	240 to 243
CC(C)(C)c1cc(SCCOCC(=O)O)cc(C(C)(C)C)c1O	86
O=c1[nH]cnc2cccc(Br)c12	239 to 240
O=C1Cc2cc(C(=O)CCl)ccc2N1	236 to 239
CCCCOc1cccc(OCCBr)c1	32 to 34
CC(C)(C)OC(=O)N1CCC(Nc2cccc(NC(=O)c3ccc(F)cc3)n2)CC1	82.7
CC(=O)N[C@@H]1CN(C(=O)c2nn(C)c3ccccc23)C[C@@H]1C (relative stereo)	202 to 204
COc1ccc(CNc2cc(Cn3c(Oc4cc(C)cc(C)c4)c(C(C)C)c(=O)[nH]c3=O)cc(Cl)n2)cc1	223 to 225
COc1ccc2c(c1)c(-c1cc3c(-c4c(C)noc4C)ccnc3[nH]1)cn2C	254 to 255
CCC(=O)OCC(=O)C1(OC(=O)c2ccccc2)CCC2C3CC(C)C4=CC(=O)C=CC4(C)C3C(O)CC21C (centres undefined)	241
Cc1nc2cnccc2n1-c1ccc(OCc2cccc(C(=O)Nc3nc4cc(F)ccc4s3)c2)cc1	244 to 246
CC12CCC3C(CC4OC45CC=CCC35C)C1CC=C2Br (centres undefined)	146 to 147

Further lines, results first:

melting point [°C]	Structure (SMILES)
87 to 88	CCN(CC)C(=O)n1cnc(S(=O)(=O)Cc2ccccc2)n1
123 to 126	Oc1ccccc1C=NC1CCOc2ccccc21 (centres undefined)
355 to 358	NC(=O)c1nc(-c2cccc(O)c2)nc2c1[nH]c(=O)n2-c1c(F)cccc1F
85 to 89	COc1ccc(C=CC(=O)C=Cc2ccccc2)cc1
163 to 165	O=C(O)Cc1ccc2c(c1)CC(=O)c1ccccc1C2
65 to 66	Cc1ccc(C(C)N2C(=O)c3ccccc3C2=O)cc1 (centres undefined)
158 to 161	CCc1cc(-c2ccc(NC(=O)N3CCc4cc(SC)c(C(F)(F)F)cc43)cc2)ccn1
158 to 162	CC1(C)Cc2cc(N)c3c(c2C(c2ccccc2)=N1)CC(C)(C)O3
187 to 190	O=C(O)CCCc1ccc(-c2ccc(Cl)cc2)cc1
119 to 120	O=C(NC1CCN(C2CCCCC2)C1)c1cccc2ccccc12 (centres undefined)
170 to 172	COc1cc(Nc2nc3cccc(-c4cccc(NC(C)=O)c4)c3o2)cc(OC)c1OC
115 to 117	Clc1ccc(-c2cc(-c3ccccc3)c(-c3ccccc3)s2)cc1
248 to 250	COc1ccc(Cc2ccc3[nH]c(=S)[nH]c3c2)c(O)c1
102 to 105	CN(Cc1ccccc1)C(N)=NC#N
152 to 153	CCCCNc1cccc2c1C(=O)c1cccc(NCCCC)c1C2=O
174 to 176	OC1CCCc2nc3ccccc3c(NCc3ccc(C(F)(F)F)cc3)c21 (centres undefined)
172 to 173	Cc1ccc(S(=O)(=O)NN=C2CCCC(=O)C2Cc2ccccc2)cc1 (centres undefined)
153 to 154	O=c1c(O)c(C#Cc2ccccc2)oc2ccccc12
108 to 109	OCc1cc2ccccc2c(-c2ccnc(Br)c2)c1CO
126 to 128	CCOC(=O)C(C#N)=Cc1c(Cl)n(Cc2ccc(OC)cc2)c2ccccc12
97 to 98	FC(F)(F)CN1CCOC(CN2c3ccccc3C=Cc3ccccc32)C1 (centres undefined)
114 to 115	O=C(O)c1ccccc1Oc1ccc(Cl)cc1
131 to 132	Cn1c(S(C)(=O)=O)nc2ccccc21

melting point [°C]	Structure (SMILES)
> 300	Nc1n[nH]c2nc3cc(O)ccc3cc12
195 to 197	O=C(NCc1ccc(Cl)cc1)c1cn2c3c(cc(CN4CCOCC4)cc3c1=O)OCCC2
268 to 272	Cc1ccc(C(=O)C2=C(O)C(=O)N(c3ccc(C)nn3)C2c2ccc(OC(C)C)cc2)cc1 (centres undefined)
260 to 262	Cc1cc2c(nc(C)n2-c2ccc(C#N)cc2)c(C)n1
238 to 240	N#Cc1ccsc1C1=CC(=O)Nc2cc(-c3ccccc3F)ccc2N1
115 to 118	O=C(COc1ccc2ccccc2c1)NC(Cc1ccccc1)C(=O)CSCc1ccco1 (centres undefined)
164	O=C(O)c1ccccc1Oc1ccc(C(F)(F)F)cc1NS(=O)(=O)c1ccc(Cl)cc1
143 to 145	CCN1C(=O)C(C)(C)C(=O)N(C)c2cc(CN(CCn3ccc4oc(C)cc4c3=O)Cc3ccncc3)ccc21
227 to 229	CCc1nc2c(C)cc(C)nc2n1Cc1ccc(C(c2ccccc2)C(CC)C(=O)O)cc1 (centres undefined)
136 to 138	CC(C)CC1(C(CCN2C(=O)c3cccc([N+](=O)[O-])c3C2=O)C(=O)NO)CCN(CCc2ccccc2)C1=O (centres undefined)
210 to 219	CCOc1cc(O)c2cc(C(C)=O)ccc2n1
175 to 177	CSc1cn(C)c2cc(-c3ccccc3Cl)sc2c1=O
111 to 114	O=C(CCCN1CCC(=C(c2ccccc2)c2ccccc2)CC1)c1ccc(F)cc1
141 to 148	O=C(Cc1ccc(F)cc1)Nc1ccc(-n2nc(C3CC3)cc2C2CC2)cc1
34 to 35	COC(=O)c1c(C)oc(C)c1-c1ccc(F)cc1
62 to 64	O=S(=O)(Nc1cccc(/C=C/c2ccccc2)c1)C(F)(F)F
230	O=c1c(Cc2ccncc2)cc2cccnc2n1-c1cccc([N+](=O)[O-])c1
< 80	CC(C(=O)Nc1ccc(-n2nc(C(F)(F)F)cc2C(F)(F)F)cc1)c1ccc(C(=O)c2cccs2)cc1 (centres undefined)
137 to 138	O=C(O)/C=C/c1cn(Cc2ccc(OCc3csc(-c4ccccc4)n3)cc2)nc1-c1cccs1
223 to 225	Cc1ncnc2c(NC(=O)c3c(Cl)cccc3Cl)cccc12
218 to 219	Cc1nnc(-c2ccc3occ(-c4ccc(S(C)(=O)=O)c(OC(F)(F)F)c4)c3c2)o1
134 to 138	CCc1n[nH]c(C(N)=O)c1NC(=O)c1cc(S(C)(=O)=O)ccc1OCc1ccccn1
177	Cc1ncc([N+](=O)[O-])n1CCN1C(=O)c2ccccc2C1=O
